According to patent US20110039879A1, “METHODS FOR INCREASING WHITE BLOOD CELLS” (FibroGen ,Inc., priority 2007, published 2011):
Marks after values point to notes of the source that are not given here.

What was measured:
[1] = tested on: total white blood cell (WBC); assay: Chemotherapy (cisplatin)-induced leukopenia, total WBC by CBC; format: in vivo, Sprague Dawley rats; details: rats; for Total WBC / Total WBC % Change from Control: blood day 4; for Total WBC % Change from Control: vs healthy control; for total white blood cell levels in the cisplatin-treated animals (in words): Compound S 60 mg/kg or Compound B 40 mg/kg oral gavage day 0, 2, 4
Method: (§1) To examine the effect of compounds and methods of the present invention on increasing white blood cells, the following studies were performed. In one series of experiments, male Swiss-Webster mice were administered various compounds of the present invention via oral gavage using a ball-tipped gavage needle. Animals treated by oral gavage received a 10 ml/kg volume of either 0.5% carboxymethyl cellulose (CMC) with 0.1% Polysorbate 80 (vehicle control) or various doses (10-100 mg/kg) of a compound of the present invention in 0.5% CMC with 0.1% Polysorbate 80. Animals were dosed once daily for 3 or 4 days. […] The following study was performed to examine the effect of compounds and methods of the present invention on treatment of chemotherapy-induced leukopenia. Thirty-eight Sprague Dawley male rats (280-300 g) were obtained from Charles River Laboratories. Six rats served as healthy controls. On day 0, the remaining thirty-two rats were treated by intravenous injection (i.v.) with a single dose of cisplatin (CP) (Bedford Laboratories, Bedford Ohio) at 5 mg/kg and by oral gavage with one of the following: Compound S at 60 mg/kg; Compound B at 40 mg/kg; or vehicle 2 ml/kg. Compound was administered on day 0, day 2, and day 4 with the first dose given two hours before the CP injection. Blood samples (0.2 ml) were collected on day 4 as follows. Animals were anesthetized with isoflurane and 0.2 ml of blood was collected from the tail vein into a MICROTAINER EDTA-2K tube (Becton-Dickinson). Blood samples were processed to measure total white blood cell, neutrophil, and lymphocyte levels by CBC analysis as described above in Example 3.

lymphocytes [2] = assay: Chemotherapy (cisplatin)-induced leukopenia, lymphocytes by CBC; format: in vivo, Sprague Dawley rats; details: rats, blood day 4; for Lymphocytes % Change from Control: vs healthy control
Method: as §1

neutrophils [3] = assay: Chemotherapy (cisplatin)-induced leukopenia, neutrophils by CBC; format: in vivo, Sprague Dawley rats; details: rats, blood day 4; for Neutrophils % Change from Control: vs healthy control
Method: as §1

lymphocytes [4] = assay: Lymphocytes by complete blood count, once daily dosing 3 or 4 days; format: in vivo, Swiss-Webster mice; details: mice, oral gavage, blood 6 h after final dosing, CBC
Method: (§2) To examine the effect of compounds and methods of the present invention on increasing white blood cells, the following studies were performed. In one series of experiments, male Swiss-Webster mice were administered various compounds of the present invention via oral gavage using a ball-tipped gavage needle. Animals treated by oral gavage received a 10 ml/kg volume of either 0.5% carboxymethyl cellulose (CMC) with 0.1% Polysorbate 80 (vehicle control) or various doses (10-100 mg/kg) of a compound of the present invention in 0.5% CMC with 0.1% Polysorbate 80. Animals were dosed once daily for 3 or 4 days. Six hours after the final dosing, 200 μl blood samples were collected and total white blood cell, neutrophil, and lymphocyte levels were measured by complete blood count (CBC) using a CellDyn cell analyzer (Abbott Laboratories).

[5] = tested on: total white blood cell (WBC); assay: Total white blood cells by complete blood count, once daily dosing 3 or 4 days; format: in vivo, Swiss-Webster mice; details: mice, oral gavage, blood 6 h after final dosing
Method: as §2

[6] = tested on: hematopoietic progenitor cells (HPCs); assay: Hematopoietic progenitor cells (Sca-1+/c-Kit+) in blood by FACS analysis; format: in vivo, Swiss-Webster mice; details: mice, oral gavage, blood 6 h after final dosing
Method: (§3) To examine the effect of compounds and methods of the present invention on hematopoietic progenitor cell (HPC) and neutrophil levels, the following studies were performed. Male Swiss-Webster mice were administered various compounds of the present invention via oral gavage using a ball-tipped gavage needle. Animals treated by oral gavage received a 10 ml/kg volume of either 0.5% carboxymethyl cellulose (CMC) with 0.1% Polysorbate 80 (vehicle control) or various doses (10-100 mg/kg) of a compound of the present invention in 0.5% CMC with 0.1% Polysorbate 80. Animals were dosed once daily for 3 or 4 days.
(§4) Six hours after the final dosing, 200 μl blood samples were collected for detection of hematopoietic progenitor cells (HPCs) and neutrophils by FACS analysis using methods previously described. (See, e.g., Wang et al. (1997) J Leukoc Biol 62 503-9 and Legasse et al. (1996) J Immunol Methods 197:139-50.) Briefly, leukocytes and progenitor cells were isolated from whole blood samples following erythrocyte depletion using red blood cell lysis buffer (eBioscience) according to the manufacturer's instructions. The remaining cells were incubated for one hour with monoclonal antibodies directed against mouse Sca-1 and mouse c-Kit (cell surface markers for HPCs, BD Pharmingen), or mouse Mac-1 and mouse Gr-1 (cell surface markers for murine neutrophils, BD Pharmingen). Following incubation with the monoclonal antibodies, the cells were washed three times with sort buffer (PBS, 1% fetal bovine serum) and resuspended in sort buffer containing 50 μg/ml of propidium iodide. Samples were then analyzed for the presence and quantitation of HPCs and neutrophils by flow cytometry (FACS Calibur, Becton Dickinson). The cytometer was set to acquire 10 000 events. Two or three blood samples obtained from each animal were analyzed and the average recorded. Hematopoietic progenitor cells were determined as double positive Sca-1+/c-Kit+ cells and neutrophils were determined as double positive Mac-1+/Gr-1+ cells.

neutrophils [7] = assay: Neutrophils (Mac-1+/Gr-1+) in blood by FACS analysis; format: in vivo, Swiss-Webster mice; details: mice, oral gavage, blood 6 h after final dosing
Method: as §3, §4

neutrophils [8] = assay: Neutrophils by complete blood count, once daily dosing 3 or 4 days; format: in vivo, Swiss-Webster mice; details: mice, oral gavage, blood 6 h after final dosing, CBC
Method: as §2

[9] = tested on: neutrophils in bone marrow; assay: Neutrophils in bone marrow by FACS analysis; format: in vivo, Swiss-Webster mice; details: mice, oral gavage, tibia bone marrow 6 h after final dosing
Method: as §4
(§5) To examine the effect of compounds and methods of the present invention on hematopoietic progenitor cell (HPC) and neutrophil levels in bone marrow, the following studies were performed. Male Swiss-Webster mice were administered various compounds of the present invention via oral gavage using a ball-tipped gavage needle. Animals treated by oral gavage received a 10 ml/kg volume of either 0.5% carboxymethyl cellulose (CMC) with 0.1% Polysorbate 80 (vehicle control) or various doses (10-100 mg/kg) of a compound of the present invention in 0.5% CMC with 0.1% Polysorbate 80. Animals were dosed once daily for 3 or 4 days. Six hours after the final dosing, bone marrow samples were taken from one tibia of each animal and suspended in buffer (PBS with 1% fetal bovine serum). Bone marrow suspensions were then filtered through nylon filters to remove stromal cells. Following filtration, the remaining cells were counted manually using a hemocytometer. Detection and quantitation of HPCs and neutrophils were performed by FACS analysis as described above in Example 1.

[10] = tested on: hematopoietic progenitor cells (HPCs) in bone marrow; assay: Hematopoietic progenitor cells in bone marrow by FACS analysis; format: in vivo, Swiss-Webster mice; details: mice, oral gavage, tibia bone marrow 6 h after final dosing
Method: as §4, §5

[11] = cisplatin 5 mg/kg i.v. single dose day 0 plus vehicle by oral gavage
[12] = 100 mg/kg once daily for 4 days
[13] = cisplatin 5 mg/kg i.v. day 0, compound 40 mg/kg oral gavage day 0, day 2, day 4
[14] = cisplatin 5 mg/kg i.v. day 0, compound 60 mg/kg oral gavage day 0, day 2, day 4

## N.N.[Cl][Pt][Cl] [cisplatin, reference compound]
[1]; 5 mg/kg cisplatin, day 4
  reduction of total white blood cell levels compared to non-treated control animals: 21%
[1]; [11]
  Total WBC: 13.3 10^3 cells/μl
  Total WBC % Change from Control: −21%
Lymphocytes [2]; [11]
  Lymphocytes: 10.1 10^3 cells/μl
  Lymphocytes % Change from Control: −24%
Neutrophils [3]; [11]
  Neutrophils: 1.6 10^3 cells/μl
  Neutrophils % Change from Control: −22%

## Cc1nc(C(=O)NCC(=O)O)c(O)c2ccc(Oc3ccccc3)cc12 [Compound B, [(4-Hydroxy-1-methyl-7-phenoxy-isoquinoline-3-carbonyl)-amino]-acetic acid]
Lymphocytes [4]; 60 mg/kg once daily for 3 days
  Lymphocytes: 7.40 10^3 cells/μl
  Lymphocytes % Increase Over Control: 82%
Lymphocytes [4]; [12]
  Lymphocytes: 9.18 10^3 cells/μl
  Lymphocytes % Increase Over Control: 101%
[1]; 5 mg/kg cisplatin, day 4
  total white blood cell levels in the cisplatin-treated animals (in words): increased total white blood cell levels
[1]; [13]
  Total WBC: 16.8 10^3 cells/μl
[1]; cisplatin 5 mg/kg i.v. day 0, compound 40 mg/kg oral gavage day 0, day 2, day 4, reduction not statistically significant
  Total WBC % Change from Control: −1* %
[5]; 60 mg/kg once daily for 3 days
  Total WBC: 8.80 10^3 cells/μl
  Total WBC % Increase Over Control: 82%
[5]; [12]
  Total WBC: 10.24 10^3 cells/μl
  Total WBC % Increase Over Control: 94%
[6]; 60 mg/kg once daily for 3 days
  Blood HPCs: 67 cells/μl
  Blood HPCs Fold Increase Over Control: 1.5 fold
  Percent Blood HPCs: 0.7 % gated cells
  Percent Blood HPCs Fold Increase Over Control: 1.1 fold
[6]; [12]
  Blood HPCs: 126 cells/μl
  Blood HPCs Fold Increase Over Control: 7.4 fold
  Percent Blood HPCs: 1.2 % gated cells
  Percent Blood HPCs Fold Increase Over Control: 3.8 fold
Lymphocytes [2]; [13]
  Lymphocytes: 14.7 10^3 cells/μl
  Lymphocytes % Change from Control: 9%
Neutrophils [7]; 60 mg/kg once daily for 3 days
  Blood Neutrophils: 126 cells/μl
  Blood Neutrophils Fold Increase Over Control: 1.3 fold
  Percent Blood Neutrophils: 1.2 % gated cells
  Percent Blood Neutrophils Fold Increase Over Control: 0.9 fold
Neutrophils [7]; [12]
  Blood Neutrophils: 936 cells/μl
  Blood Neutrophils Fold Increase Over Control: 5.3 fold
  Percent Blood Neutrophils: 9.1 % gated cells
  Percent Blood Neutrophils Fold Increase Over Control: 2.7 fold
Neutrophils [8]; 60 mg/kg once daily for 3 days
  Neutrophils: 1.28 10^3 cells/μl
  Neutrophils % Increase Over Control: 110%
Neutrophils [8]; [12]
  Neutrophils: 0.96 10^3 cells/μl
  Neutrophils % Increase Over Control: 66%
[9]; 60 mg/kg once daily for 3 days
  Percent Bone Marrow Neutrophils: 34.7 % gated cells
  Percent Bone Marrow Neutrophils Fold Increase Over Control: 1.1 fold
[9]; [12]
  Percent Bone Marrow Neutrophils: 33.6 % gated cells
  Percent Bone Marrow Neutrophils Fold Increase Over Control: 1.3 fold
Neutrophils [3]; [13]
  Neutrophils: 2.2 10^3 cells/μl
  Neutrophils % Change from Control: 7%
[10]; 60 mg/kg once daily for 3 days
  Percent Bone Marrow HPCs: 6.3 % gated cells
  Percent Bone Marrow HPCs Fold Increase Over Control: 1.7 fold
[10]; [12]
  Percent Bone Marrow HPCs: 7.0 % gated cells
  Percent Bone Marrow HPCs Fold Increase Over Control: 1.6 fold

## O=C(O)CNC(=O)c1nc(Cl)c2ccccc2c1O [Compound S, [(1-Chloro-4-hydroxy-isoquinoline-3-carbonyl)-amino]-acetic acid]
[1]; 5 mg/kg cisplatin, day 4
  total white blood cell levels in the cisplatin-treated animals (in words): increased total white blood cell levels
[1]; [14]
  Total WBC: 20.2 10^3 cells/μl
  Total WBC % Change from Control: 19%
Lymphocytes [2]; [14]
  Lymphocytes: 16.2 10^3 cells/μl
  Lymphocytes % Change from Control: 21%
Neutrophils [3]; [14]
  Neutrophils: 2.2 10^3 cells/μl
  Neutrophils % Change from Control: 7%
